Test results taken from patent US8012983B2, “Substituted triazolopyrazines useful for the treatment of degenerative and inflammatory diseases” (Galapagos NV, priority 2008, dated 2011).

System: MMP13 expression in SW1353 chondrosarcoma cell line
Assay: MMP13 assay: IL-1/OSM-driven MMP13 expression in SW1353 cells (MMP13 ELISA)
Format: cell-based
Conditions: Homo sapiens, IL-1β and OSM, 48 hr
Experimental: The protocol of the MMP13 ELISA is described in section 4.1, then testing of compounds on release of IL-1/OSM-driven MMP13 expression in SW1353 chondrosarcoma cell line is described in section 4.2.
A 384 well format ELISA for measurement of MMP13 was developed. Various primary antibodies were tested, as well as various ELISA protocols. The following protocol is developed and validated to measure MMP13 levels in supernatant of cell cultures in 384 well plates.
Black maxisorb 384 well plates (Nunc 460518) are coated with 35 μl of a buffered solution containing 1.5 μg/mL anti-MMP13 antibody MAB511 (R&D systems). The antibody is diluted in carbonate-bicarbonate coating buffer (1.59 g Na2CO3 (Sigma S-7795) and 2.93 g NaHCO3 (Sigma S-5761) in 1 L MilliQ water, adjusted to pH 9.6). After overnight incubation at 4° C., wells are washed twice with 100 μL PBST (80 g NaCl, 2 g KCl (Sigma), 11.5 g Na2HPO4.7H2O and 2 g KH2PO4 in 10 L milliQ water; pH 7.4+0.05% Tween-20 (Sigma)) and blocked with 100 μL/well blocking buffer (5% non fat dry milk in PBS). After overnight incubation at 4° C., wells are washed twice with 100 μL PBST. The PBST is removed and 35 μL of sample is transferred to the ELISA plates. After 4 hr incubation at RT, plates are washed twice with PBST and incubated for 1 hr at 37° C. with 35 μL/well 1.5 mM APMA solution (a 10 mM APMA stock solution is prepared one day before (35.18 mg APMA (Sigma A-9563) in 10 mL 0.1M NaOH (Merck 1.06469.1000) and stored at 4° C. Before use, the 10 mM APMA stock solution is diluted to 1.5 mM in 1×APMA buffer (10× APMA buffer: 500 mM Tris (Roche 708976), 50 mM CaCl2 (Sigma C-5080), […] ZnCl2 (Sigma Z-0173), 1.5 M NaCl (Calbiochem 567441), 0.5% Brij35 (Sigma 430 AG-6) and adjust to pH 7.0). After activation of MMP13 by APMA, plates are washed again two times with 100 μL PBST/well and 35 μL of substrate solution is added to each well. Substrate solution is prepared as follows: OmniMMP Fluorescent substrate (Biomol P-126) stock solution (2 mM in DMSO, stored at −20° C.) is diluted in 1× OmniMMP buffer (10× OmniMMP buffer: 500 mM Hepes (Sigma H4034), 100 mM CaCl2 (Sigma C5080), 0.5% Brij35 (Sigma 430 AG-6; adjusted to pH 7.0) to a final concentration of 0.01 mM. After an overnight incubation at 37° C., the active MMP13 in the sample has cleaved the substrate and released fluorescence. Readout is performed on the EnVision (Perkin Elmer) using 320 nm excitation/405 nm emission filters.
Human chondrosarcoma cell line SW1353 was acquired from ATCC and grown in DMEM supplemented with 10% heat-inactivated FBS and 1× penicillin/streptomycin (Invitrogen) in a humidified 5% CO2 incubator at 37° C. Aliquots of the cells were frozen and cryopreserved in liquid nitrogen. Starting from a cryopreserved aliquot, cells are further grown by sub-culturing at a 1/5-1/8 ratio twice a week by trypsinisation.
Starting from the compound master stocks (all at 10 mM concentration in 100% DMSO) a 3-fold serial dilution is made in 96-well plates in 100% DMSO. Then, plates are futher diluted 50-fold in M199 medium supplemented with 1% heat-inactivated FBS to obtain an intermediate work stock.
At day 1, SW1353 cells are seeded in 96-well plates (flat bottom, tissue culture treated, Greiner) at a density of 15000 cells/well in 120 μL growth medium. The next day, 15 μL compound out of the intermediate work stock is added. After an incubation period of 60 minutes, which allows the compounds to equilibrate and enter the cells, cells are stimulated with a mixture of IL-1β and OSM, added in a volume of 15 μL to obtain final concentrations of 1 ng/ml IL-1β and 25 ng/ml OSM. For that, stocks of IL-1 (10 μg/ml) and OSM (25 μg/ml) (both PeproTech) were diluted to 10 ng/ml and 250 ng/ml respectively, in M199 medium supplemented with 1% FBS. After incubation for 48 hr, the cell supernatant was harvested and an appropriate dilution was processed in the MMP13 ELISA as described above, delivering raw data (RFU: relative fluorescence units). […]

SMILES | IC50 [nM]
CC(C)N1C[C@@H]2C[C@H]1CN2c1cccc(Nc2ncc(-c3coc(C(N)=O)c3)n3ccnc23)c1 [Compound 25, 4-(8-(3-((1S,4S)-5-isopropyl-2,5-diazabicyclo[2.2.1]heptan-2-yl)phenylamino)imidazo[1,2-a]pyrazin-5-yl)furan-2-carboxamide] | > 1000
CC(C)N1C[C@@H]2C[C@H]1CN2c1cccc(Nc2ncc(-c3ccc4c(c3)CNC4=O)n3ncnc23)c1 [Compound 26, 5-(8-(3-((1S,4S)-5-isopropyl-2,5-diazabicyclo[2.2.1]heptan-2-yl)phenylamino)-[1,2,4]triazolo[1,5-a]pyrazin-5-yl)isoindolin-1-one] | > 1000
